In patent US20060183889A1, “Alkyl phosphine detergent products and extraction processes” (priority 2005, published 2006):
Peptide text beside a SMILES is read from it.

Columns and labels:
[1] = cited from earlier work
[2] = test system: uninduced BL21 Star cells; assay: Screening of detergents: lysis of uninduced cell cultures analysed by PAGE; type: cell-based, E. coli; settings: for lysis performance / lysis of uninduced BL21 Star cells by PAGE (FIG. 1) / lysis capabilities by PAGE (FIG. 2): 1% detergent in 50 mM phosphate; for lysis performance / lysis of uninduced BL21 Star cells by PAGE (FIG. 1): 300 mM NaCl pH 7; for lysis performance: compared with BugBuster; for lysis capabilities by PAGE (FIG. 2): 300 mM NaCl pH=7, alkyl chain length 9-11; for lysis of bacterial cells: 1% detergent in 50 mM phosphate pH 7, uninduced cell cultures, compared with BugBuster and B-Per
Description: (§1) Cultures were grown to OD600=1.2-1.5 and then collected for lysis. One ml of culture was subjected to centrifugation (10,000×g) and lysed in 75 to 100 μl of each lysis buffer depending on optical density (OD). In some samples 10 μl of 1:100 dilution of BENZONASE® nuclease (Benzon Pharma A/S) and 10 μl of 0.5 mg/ml Lysozyme were added. Samples were allowed to incubate at room temperature for approximately 10 minutes, then spun down at 10,000×g. Supernatant was pipetted and used for subsequent activity assays and SDS-PAGE analysis. For BL21 (DE3) pLysS cultures, 2 independent lysates of each culture with and without lysozyme were prepared and tested.
(§2) For gel electrophoresis, 15 μL of each lysate was incubated with 5 μl of 4× LDS Sample buffer and 2 μl of NuPage Reducing reagent in a 70° C. heat block for 10 minutes. 5 μl of the samples were run on 4-12% NuPAGE gels (Invitrogen cat # NP0321 or NP0323) with MES SDS running buffer. SDS-PAGE gels were stained with SimplyBlue Safe Stain (Invitrogen cat# LC6065).
Screening of a wide range of detergents was performed by evaluating the lysis of uninduced cell cultures. For the first round of screening, detergents from different chemical groups were evaluated starting with some well-known detergents such as Triton X-100, Elugent, NP-7, NP-40. The lysis buffers were prepared at 1% detergent concentration in 50 mM phosphate pH 7. The detergents were compared with known lysis procedures using BugBuster® lysis reagent (Novagen), B-Per™ protein extraction reagent (Pierce), Relay 96 Protein Screen (Invitrogen), and sonication.
Other types of detergents also screened were ASB-C8 and three other synthesized sulfobetaine detergents: SB-A, SB-B, and SB-C, as well as APO-8, APO-10, APO-12 and N-dodecanoyl sucrose as 1% detergent solutions in 50 mM phosphate, 300 mM NaCl pH 7) using BL21 Star cells. […] Lane 1 is a Mark 12 Molecular Weight Standard; lane 2 is a 1% SB-A lysis solution; lane 3 is a 1% ASB-C8 lysis solution; lane 4 is a 1% SB-B lysis solution; lane 5 is a 1% SB-C lysis solution; lane 6 is a 1% APO-8 lysis solution; lane 7 is a 1% APO-10 lysis solution; lane 8 is a 1% APO-12 lysis solution; lane 9 is a 1% N-Dodecanoyl Sucrose lysis solution and lane 10 is BugBuster® HT lysis reagent. […] It is likely that the length of the alkyl chain is critical for the lysis ability of the detergent. Therefore, another round of testing was performed with detergents of the same type with alkyl chains one […] smaller and bigger than APO-10. […] One percent detergent formulations were prepared in 50 mM phosphate, 300 mM NaCl pH=7. In FIG. 2, Lane 1 is a Mark 12 Molecular Weight Standard; lane 2 is BugBuster® HT; lane 3 is a 1% APO-9 lysis solution; lane 4 is a 1% APO-10 lysis solution and lane 5 is a 1% APO-11 lysis solution.

[3] = test system: BL-21-AI, BL-21-Star, BL-21 DE3; assay: Side by side comparison of alkylglucoside and alkylphosphine detergents as lysis reagents; type: cell-based, E. coli; settings: several cell types: BL-21-AI
Description: as §1, §2
Side by side comparison testing was performed of the alkylglucoside and alkylphosphine detergents with several different cell types: BL-21-AI, BL-21-Star, BL-21 DE3. In this comparison testing BugBuster® HT lysis reagent (Novagen), B-Per™ protein extraction reagent (Pierce), n-octyl-β-D-glucopyranoside, n-nonyl-β-D-glucopyranoside, and n-octyl-β-D-thioglucopyranoside, APO-9 and APO-10 were utilized. […] Further optimization and testing was concentrated on the use of APO detergents by themselves and in combination with other detergents.

[4] = test system: BL21 Star cultures; assay: MBP extraction evaluated qualitatively by SDS PAGE; type: cell-based, E. coli; settings: qualitative
Description: (§3) E. coli strain BL21 cells were transformed with plasmids expressing β-galactosidase, green fluorescent protein (GFP) or maltose binding protein (MBP) as follows. BL21-AI were transformed with pET 100 expressing n-terminal 6×His tagged GFP or n-terminally 6×His tagged LacZ (β-galactosidase). The cells were grown at 37° C. to OD600=0.4-0.5 and then induced with 1 mM IPTG and 0.1% arabinose. The expression was performed for 2-4 hours at 37° C. BL21 Star cells were transformed with plasmid expressing MBP. The cells were grown at 37° C. to OD600=0.4-0.5 and then induced with 1 mM IPTG. Protein expression was performed at 30° C. for 2-4 hours. BL-21(DE3) and BL-21(DE3)pLysS cells were transformed with vector expressing N-terminally 6×His tagged LacZ (β-galactosidase) (pET 100 lacZ-IVGN cat# K100-01), N-terminal Lumio tag (Cys-Cys-Pro-Gly-Cys-Cys) and 6×His tagged Lac-Z (pET 160 LacZ), and N-terminal Lumio tag (Cys-Cys-Pro-Gly-Cys-Cys) and 6×His tagged GFP (pET 160 GFP). […]
Following preliminary screening, more detailed testing was performed using GFP, β-galactosidase and MBP expressed in E. coli. […] The activity of the β-galactosidase was measured using the β-galactosidase activity kit (Invitrogen) as described above. The GFP activity (native state) was tested by measuring the fluorescence of the protein as described above. MBP extraction was evaluated qualitatively by SDS PAGE gel electrophoresis.

[5] = test system: BL21- AI cells expressing β-galactosidase; assay: Lysis of cells expressing β-galactosidase, β-galactosidase activity of lysate; type: cell-based, E. coli; settings: 0.5% APO detergent formulation; lysozyme in the lysis buffer
Description: as §3, with “hours.” for “hours. BL-21(DE3) and BL-21(DE3)pLysS cells were transformed with vector expressing N-terminally 6×His tagged LacZ (β-galactosidase) (pET 100 lacZ-IVGN cat# K100-01), N-terminal Lumio tag (Cys-Cys-Pro-Gly-Cys-Cys) and 6×His tagged Lac-Z (pET 160 LacZ), and N-terminal Lumio tag (Cys-Cys-Pro-Gly-Cys-Cys) and 6×His tagged GFP (pET 160 GFP).”
(§4) GFP activity was determined by reading fluorescence (Excitation at 395/Emission […]) of lysates (diluted 1:20 or 1:40 in 50 mM Phosphate pH 7). The raw data was recorded. LacZ activity was determined by using the β-galactosidase assay kit (IVGN cat # K1455-01). The lysate samples were diluted 1:100 and then analyzed as described in the kit manual. Results were obtained using OD420 readings in the following equation: nmoles of ONPG hydrolyzed/μL lysate=(OD420background) (1.92×10^5 nl)(dilution factor=100) (4500 nl/nmoles-cm)×(1 cm) Data was normalized to the reading received from a control sample prepared with BugBuster® or BugBuster® HT (Novagen) lysis reagents. […]

[6] = test system: BL21-AI cells expressing GFP; assay: Lysis of cells expressing GFP, fluorescence of lysate; type: cell-based, E. coli; settings: 0.5% in 50 mM Tris pH=7; normalized to BugBuster; average of multiple treatments
Description: as §3, with “hours.” for “hours. BL-21(DE3) and BL-21(DE3)pLysS cells were transformed with vector expressing N-terminally 6×His tagged LacZ (β-galactosidase) (pET 100 lacZ-IVGN cat# K100-01), N-terminal Lumio tag (Cys-Cys-Pro-Gly-Cys-Cys) and 6×His tagged Lac-Z (pET 160 LacZ), and N-terminal Lumio tag (Cys-Cys-Pro-Gly-Cys-Cys) and 6×His tagged GFP (pET 160 GFP).”
as §4

Molecule: NCC(=O)NCC(=O)O [Glycylglycine] (H-Gly-Gly-OH)
- pKa(4° C.) [1]: 8.85
- pKa(37° C.) [1]: 7.92
- Temperature Coefficient (↑pKa/° C.) [1]: 0.028 ↑pKa/° C.

Molecule: O=C(O)CNC(CO)(CO)CO [TRICINE]
- pKa(4° C.) [1]: 8.49
- pKa(37° C.) [1]: 7.79
- Temperature Coefficient (↑pKa/° C.) [1]: 0.021 ↑pKa/° C.

Molecule: Cl.NCC(N)=O [Glycinamide HCL]
- pKa(4° C.) [1]: 8.66
- pKa(20° C.) [1]: 8.20
- pKa(37° C.) [1]: 7.71
- Temperature Coefficient (↑pKa/° C.) [1]: 0.029 ↑pKa/° C.

Molecule: CCCCCCCCCCCCO[C@@H]1O[C@H](CO)[C@@H](O[C@H]2O[C@H](CO)[C@@H](O)[C@H](O)[C@H]2O)[C@H](O)[C@H]1O [n-dodecyl-β-D-maldoside]
- lysis performance [2]: good lysis performance

Molecule: CCCCCCCCCCCCP(C)(C)=O [APO-12, Dimethyldodecylphosphine oxide]
- lysis of uninduced BL21 Star cells by PAGE (FIG. 1) [2]: did not lyse the cells efficiently

Molecule: O=S(=O)(O)CCN(CCO)CCO [BES]
- pKa(4° C.) [1]: 7.41
- pKa(20° C.) [1]: 7.5
- pKa(37° C.) [1]: 6.88
- Temperature Coefficient (↑pKa/° C.) [1]: 0.016 ↑pKa/° C.

Molecule: CCCCCCCCCO[C@@H]1O[C@H](CO)[C@@H](O)[C@H](O)[C@H]1O [n-nonyl-β-D-glucopyranoside]
- performance as lysis reagent [3]: performed well
- lysis performance [2]: good lysis performance

Molecule: CCCCCCCCO[C@@H]1O[C@H](CO)[C@@H](O)[C@H](O)[C@H]1O [n-octyl-β-D-glucopyranoside]
- performance as lysis reagent [3]: performed well
- MBP extraction [4]: comparable
- lysis performance [2]: good lysis performance

Molecule: N-dodecanoyl sucrose
- lysis of uninduced BL21 Star cells by PAGE (FIG. 1) [2]: did not lyse the cells efficiently

Molecule: CCCCCCCCS[C@@H]1O[C@H](CO)[C@@H](O)[C@H](O)[C@H]1O [n-octyl-β-D-thioglucopyranoside]
- performance as lysis reagent [3]: performed well
- lysis performance [2]: good lysis performance

Molecule: CCCCCCCCCCP(C)(C)=O [APO-10, Dimethyldecylphosphine oxide]
- difference of β-galactosidase extraction performance from the BPER-2 reagent (FIG. 4) [5]: ≤ 5%
- performance as lysis reagent [3]: performed well
- MBP extraction [4]: similarly or slightly better
- difference of GFP fluorescence result from the BugBuster reagent (FIG. 3) [6]: ≤ 7%
- lysis of uninduced BL21 Star cells by PAGE (FIG. 1) [2]: performed very well
- lysis capabilities by PAGE (FIG. 2) [2]: optimal lysis capabilities

Molecule: O=S(=O)(O)CCCN1CCN(CCO)CC1 [HEPPS]
- pKa(4° C.) [1]: 8.18
- pKa(20° C.) [1]: 8.00
- pKa(37° C.) [1]: 7.81
- Temperature Coefficient (↑pKa/° C.) [1]: 0.011 ↑pKa/° C.

Molecule: CCCCCCCCCP(C)(C)=O [APO-9, Dimethylnonylphosphine oxide]
- performance as lysis reagent [3]: performed well
- lysis capabilities by PAGE (FIG. 2) [2]: optimal lysis capabilities

Molecule: O=S(=O)(O)CCNC(CO)(CO)CO [TES]
- pKa(4° C.) [1]: 7.82
- pKa(20° C.) [1]: 7.50
- pKa(37° C.) [1]: 7.16
- Temperature Coefficient (↑pKa/° C.) [1]: 0.020 ↑pKa/° C.

Molecule: NP-40
- lysis of bacterial cells [2]: not be very efficient

Molecule: O=C(O)CN(CCO)CCO [Bicine]
- pKa(4° C.) [1]: 8.64
- pKa(37° C.) [1]: 8.04
- Temperature Coefficient (↑pKa/° C.) [1]: 0.018 ↑pKa/° C.

Molecule: Triton X-100
- lysis of bacterial cells [2]: not be very efficient

Molecule: CCCCCCCCP(C)(C)=O [APO-8, Dimethyloctylphosphine oxide]
- lysis of uninduced BL21 Star cells by PAGE (FIG. 1) [2]: did not lyse the cells efficiently

Molecule: NC(=O)CN(CC(=O)O)CC(=O)O [ADA]
- pKa(4° C.) [1]: 6.80
- pKa(20° C.) [1]: 6.60
- pKa(37° C.) [1]: 6.43
- Temperature Coefficient (↑pKa/° C.) [1]: 0.011 ↑pKa/° C.
